Tests used:
4EGI-1 + Foretinib = compound: O=C(O)C(Cc1ccccc1[N+](=O)[O-])=NNc1nc(-c2ccc(Cl)c(Cl)c2)cs1 (mixture of isomers) [4EGI-1] + COc1cc2c(Oc3ccc(NC(=O)C4(C(=O)Nc5ccc(F)cc5)CC4)cc3F)ccnc2cc1OCCCN1CCOCC1 [Foretinib] (partner 0.25 µM); assay: relative viability (nuclei count vs DMSO), 5 days (fraction); higher = more cells survive
Method in brief: (§1)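 Cells from lung cancer lines were seeded into 1536-well plates and, one day later, dosed by pin tool. Treatments were either a single drug or a fixed dose of an anchor drug with five library-drug doses (not always all listed) in √10 steps. After 5 days, nuclei were stained in a one-step fixation (final 0.05% Triton X-100, 1% formaldehyde, 1 ug/ml Hoechst) and counted on 4× images, and relative viability is the treated-to-vehicle nuclei ratio, as the median of duplicate plates.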

XMD8-85 + Navitoclax = compound: CN1CCN(CC1)C2=CC(=C(C=C2)NC3=NC=C4C(=N3)N(C5=CC=CC=C5C(=O)N4C)C)OC [XMD8-85] + CC1(C)CCC(c2ccc(Cl)cc2)=C(CN2CCN(c3ccc(C(=O)NS(=O)(=O)c4ccc(N[C@H](CCN5CCOCC5)CSc5ccccc5)c(S(=O)(=O)C(F)(F)F)c4)cc3)CC2)C1 [Navitoclax] (partner 0.5 µM); assay: as above
Method in brief: as §1

Cell Line | relative viability (4EGI-1 + Foretinib; first compound 0.5 µM) | relative viability (4EGI-1 + Foretinib; first compound 1.581 µM) | relative viability (4EGI-1 + Foretinib; first compound 5 µM) | relative viability (4EGI-1 + Foretinib; first compound 15.81 µM) | relative viability (4EGI-1 + Foretinib; first compound 50 µM) | relative viability (XMD8-85 + Navitoclax; first compound 0.08 µM) | relative viability (XMD8-85 + Navitoclax; first compound 0.253 µM) | relative viability (XMD8-85 + Navitoclax; first compound 0.8 µM) | relative viability (XMD8-85 + Navitoclax; first compound 2.53 µM) | relative viability (XMD8-85 + Navitoclax; first compound 8 µM)
H3255 | 0.982 | 0.788 | 0.907 | 0.775 | 0.823 | 0.519 | 0.581 | 0.45 | 0.484 | 0.284
NCI-H322M | 1.03 | – | 1.13 | 0.816 | 0.342 | 1.21 | 1.1 | 1.34 | 1.2 | 1.05
UMC-11 | 1.1 | 1.09 | 1.12 | 1.09 | 0.39 | 0.356 | 0.312 | 0.322 | 0.301 | 0.234
NCI-H1703 | 0.38 | 0.373 | 0.348 | 0.349 | 0.326 | 1.02 | 1.18 | 1.23 | 1.13 | 0.983
NCI-H661 | 0.999 | 0.94 | 0.994 | 0.714 | 0.313 | – | – | – | – | –
NCI-H1915 | 1.13 | 0.858 | 1.08 | 1.07 | 0.928 | 0.859 | 0.817 | 0.791 | 0.771 | 0.622
NCI-H2009 | 1.28 | 1.29 | 1.27 | 1.23 | 0.981 | 1.13 | 1.12 | 1.19 | 1.08 | 0.717
RERF-LC-KJ | 0.883 | 0.77 | 0.857 | 0.695 | 0.734 | 0.712 | 0.96 | 0.982 | 1.03 | 0.565
201T | 1.2 | 0.861 | 1.18 | 0.985 | 0.63 | 1.2 | 1.24 | 1.26 | 1.19 | 1.08
HCC-827 | 1.07 | 0.889 | 1.05 | – | 0.339 | 1.02 | 1.01 | 0.985 | 0.909 | 1.03
NCI-H838 | 1.03 | – | 1.13 | 1.04 | 0.369 | 1.15 | 1.13 | 1.16 | 1.15 | 0.536
NCI-H1734 | 1.02 | 0.803 | 0.971 | 0.827 | 0.472 | 0.806 | 0.888 | 0.78 | 0.952 | 0.504
NCI-H441 | 0.909 | 0.929 | 1.01 | 0.882 | 0.447 | 0.664 | 0.565 | 1.01 | 1.11 | 0.278
NCI-H1355 | 0.932 | 0.87 | 0.962 | 0.851 | 0.738 | 1.06 | 1.01 | 0.977 | 0.862 | 0.804
HCC-44 | – | – | – | – | – | 1.03 | 1.03 | 1.05 | 0.796 | 0.434
NCI-H2085 | 0.826 | 1.02 | 1.07 | 0.814 | 0.541 | 1.16 | 1.11 | 1.12 | 1.04 | 0.789
NCI-H358 | 0.739 | 0.657 | 0.84 | 0.515 | 0.11 | – | – | – | – | –
SW 900 | 0.935 | – | 0.908 | 0.677 | 0.546 | – | – | – | – | –
